The target of assay [1] is Sodium channel protein type 9 subunit alpha (Homo sapiens, UniProt Q15858). Briefly: (§1) Control sodium currents were measured in 0.5% DMSO. Type of assay: cell-based.
Assay [2] is described as follows: as §1. Type of assay: cell-based.

The results in this text go back to ChEMBL document CHEMBL5725519, “Substituted benzamides and methods of use thereof” (2017).

Sequence of Sodium channel protein type 9 subunit alpha (Q15858 whole entry): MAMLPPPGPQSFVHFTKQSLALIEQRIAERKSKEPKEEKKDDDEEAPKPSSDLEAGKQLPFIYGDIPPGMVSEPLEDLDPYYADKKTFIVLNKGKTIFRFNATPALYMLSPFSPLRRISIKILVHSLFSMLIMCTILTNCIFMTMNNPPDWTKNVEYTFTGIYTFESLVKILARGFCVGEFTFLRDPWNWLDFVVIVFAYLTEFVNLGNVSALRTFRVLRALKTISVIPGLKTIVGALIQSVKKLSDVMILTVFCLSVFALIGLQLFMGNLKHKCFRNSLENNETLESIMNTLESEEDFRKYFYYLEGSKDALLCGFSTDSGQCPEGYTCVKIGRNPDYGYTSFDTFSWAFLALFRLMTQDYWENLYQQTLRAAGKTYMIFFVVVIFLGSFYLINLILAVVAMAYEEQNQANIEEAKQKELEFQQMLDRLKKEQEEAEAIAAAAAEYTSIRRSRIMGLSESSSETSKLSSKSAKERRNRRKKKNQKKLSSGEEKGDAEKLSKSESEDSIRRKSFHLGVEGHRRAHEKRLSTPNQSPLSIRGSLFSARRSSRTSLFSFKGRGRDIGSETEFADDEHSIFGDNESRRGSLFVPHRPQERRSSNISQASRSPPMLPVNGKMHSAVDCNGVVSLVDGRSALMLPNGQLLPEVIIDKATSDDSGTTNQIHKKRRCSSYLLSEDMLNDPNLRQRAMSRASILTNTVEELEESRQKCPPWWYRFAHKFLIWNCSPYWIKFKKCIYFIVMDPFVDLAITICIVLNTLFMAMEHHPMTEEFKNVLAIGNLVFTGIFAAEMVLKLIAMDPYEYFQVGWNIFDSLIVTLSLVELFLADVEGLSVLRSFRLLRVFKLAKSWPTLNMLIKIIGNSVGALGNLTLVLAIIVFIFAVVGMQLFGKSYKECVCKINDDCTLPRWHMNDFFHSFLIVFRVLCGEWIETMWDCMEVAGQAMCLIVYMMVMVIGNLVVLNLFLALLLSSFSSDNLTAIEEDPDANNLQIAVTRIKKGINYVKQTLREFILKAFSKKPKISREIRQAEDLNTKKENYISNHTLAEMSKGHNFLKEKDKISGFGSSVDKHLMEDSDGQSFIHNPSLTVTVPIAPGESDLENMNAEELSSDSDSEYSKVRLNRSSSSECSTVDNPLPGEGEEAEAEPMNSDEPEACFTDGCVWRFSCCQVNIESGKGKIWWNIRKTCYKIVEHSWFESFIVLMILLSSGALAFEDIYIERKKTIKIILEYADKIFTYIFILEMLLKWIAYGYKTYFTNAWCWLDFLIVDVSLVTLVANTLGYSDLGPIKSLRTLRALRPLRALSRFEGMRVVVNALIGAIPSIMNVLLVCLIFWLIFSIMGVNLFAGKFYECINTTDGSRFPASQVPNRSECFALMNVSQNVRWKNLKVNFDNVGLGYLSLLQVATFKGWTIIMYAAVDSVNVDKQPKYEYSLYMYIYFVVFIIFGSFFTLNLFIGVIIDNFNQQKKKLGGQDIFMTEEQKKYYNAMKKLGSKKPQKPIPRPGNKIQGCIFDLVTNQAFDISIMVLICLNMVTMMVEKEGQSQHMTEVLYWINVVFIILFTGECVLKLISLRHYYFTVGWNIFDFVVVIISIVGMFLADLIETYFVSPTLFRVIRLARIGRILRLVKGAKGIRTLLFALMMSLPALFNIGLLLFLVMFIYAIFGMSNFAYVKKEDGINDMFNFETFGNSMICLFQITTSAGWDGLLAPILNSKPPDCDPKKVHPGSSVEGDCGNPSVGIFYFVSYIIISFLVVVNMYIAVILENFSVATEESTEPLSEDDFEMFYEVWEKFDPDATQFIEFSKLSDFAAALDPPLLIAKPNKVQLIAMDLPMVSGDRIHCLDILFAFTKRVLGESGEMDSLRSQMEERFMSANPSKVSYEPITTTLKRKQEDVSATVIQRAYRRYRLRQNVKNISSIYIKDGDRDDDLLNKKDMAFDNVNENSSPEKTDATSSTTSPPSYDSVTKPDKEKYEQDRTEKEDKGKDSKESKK

By IC50 is commonly meant the concentration needed to halve the response being measured. A higher IC50 goes with a need for much substance. In assay [1], `O=C(NS(=O)(=O)N1CCC1)c1cc(C2CC2)c(OCC2CC3CCC(C2)N3C(c2ccccc2)c2ccccc2)cc1F` (configuration not stated) registered an IC50 of 5.4 nM. That is a single-digit nanomolar value.

On to `CS(=O)(=O)NC(=O)c1cc(C2CC2)c(OCC2CCN(Cc3ccc(Cl)c(C(F)(F)F)c3)CC2)cc1F`, for which the IC50 in assay [2] came to 169 nM. That is a sub-micromolar value.
